Patent EP0551200A1, “Protein phosphatase inhibitors for use in therapy” (priority 1992, dated 1993)
Read-outs that look alike come from different tables or passages of the source.

Experiments:
Egr-1 mRNA [1] = test: cells; type: cell-based, mouse
Method: (§1) 10 µg of RNA was applied to each lane and subjected to Northern blot analysis using an Egr-1 specific cDNA probe [1.6 kb Bgl II fragment (Sukhatme et al, Cell 53, 37-48, 1988)]. The same blots were rehybridized with actin or GADPH cDNA for normalizing the amount of RNA loaded. The blots were dried and autoradiographed. • (A). Time course of okadaic acid-induced Egr-1 and c-jun messages in primary human fibroblasts. Quiescent human fibroblasts were induced with 1 µM of okadaic acid for the time periods indicated. […] Time course of okadaic acid-induced Egr-1 message in Balb/c 3T3 cells. Quiescent Balb/c 3T3 cells were induced with okadaic acid (0.5µM) for the times indicated. • (C). Concentration dependent induction of Egr-1 message by okadaic acid in Balb/c 3T3 cells. Quiescent Balb/c 3T3 cells were induced with the indicated concentrations of okadaic acid for 1 h. As controls, different concentrations of DMSO were included. These corresponded to the amounts present in 0.25 µM okadaic acid (0.025% dimethyl sulphoxide (DMSO)) 0.5 µM okadaic acid (0.05% DMSO) and 1 µM okadaic acid (0.1%). • (D). Concentration dependent and time course induction of Egr-1 message by calyculin A. Quiescent Balb/c 3T3 cells were induced with different concentrations of calyculin A for 1 h. Northern analysis of this dose-dependent induction by calyculin A is shown on the left panel of the figure. […] Northern analysis of this time course induction by calyculin A is shown in the right panel of the figure. The same blot was rehybridized with pCMV-fos (Curran et al, Oncogene 2, 79-84, 1987) and pCMV-jun (Rauscher et al, 1988) shown in the middle panel. The blot was dried and autoradiographed.
(§2) Quiescent primary human fibroblasts were incubated with okadaic acid (OA) or TPA for 1 or 3 h. The concentrations of OA and TPA were 0.5 µM and 120 ng/ml, respectively. The concentration of 1-(5-isoquinolinylsulfonyl)-2-methylpiperazine dihydrochloride (H7) and N-(2-guanidinoethyl)-5-isoquinolinesulphonamide dihydrochloride (HA1004) used was 25 µM. The cells were pre-treated for 15 min with H7 or HA1004 before they were induced by OA or TPA for 1 or 3 h. Cells were harvested, RNA was isolated and subjected to Northern blot analysis. The blot was probed with Egr-1 or GADPH cDNA. • (B). As a positive control, primary human fibroblasts were treated with TPA (30 ng/ml) for 1 h (1st lane). The fibroblasts were also pre-treated with H7 (25 µM) or HA1004 (25 µM) for 15 min before treatment with TPA for 1 h (2nd and 3rd lanes respectively). […] The blot was probed with Egr-1 or actin cDNA. • (C). Quiescent Balb/c 3T3 cells were incubated with OA, TPA or dBt-cAMP for 1 h or pre-treated with H7 (25 µM) or HA1004 (25 µM) for 15 min and then incubated with each of the agonists for 1 h. Cells were harvested, RNA was isolated and subjected to Northern blot analysis. The concentration of each agonist used was as follows: lane a: 0.5 µM of OA, lane b: 100 ng/ml of TPA, lane c: 1 mM of dBt-cAMP, lane d: H7 plus OA (0.5 µM), lane e: H7 plus TPA (100 ng/ml), lane f: H7 plus dBt-cAMP (1 mM), lane g: HA1004 plus OA (0.5 µM), lane h: HA1004 plus TPA (100 ng.ml), lane i: HA1004 plus dBt-cAMP (1mM). The blot was probed with Egr-1 or GADPH cDNA.
Cell Cultures and Reagents. Human diploid foreskin fibroblasts were a gift from Dr J Vilcek (New York University, New York). The cells were grown in MEM supplemented with 10% fetal bovine serum (Hyclone, Logan, UT, US), Mouse Balb/c 3T3 cells were purchased from the American Type Culture Collection and grown in Dulbecco's MEM (DMEM) supplemented with 10% fetal bovine serum. Okadaic acid, calyculin A, H7, and HA1004 were purchased from Biomol Research Laboratories (Plymouth Meeting, PA, US). TPA, puromycin and dBt-cAMP were purchased from Sigma (St Louis, MO, US) 1 mM stock solutions of okadaic acid or calyculin A were solubilized in DMSO. [³²P]orthophosphate and other radioactive chemicals were purchased from Du Pont-New England Nuclear (Boston, MA). […]

Egr-1 mRNA [2] = test: Northern blot analysis of Egr-1 mRNA induction in quiescent primary human fibroblasts; type: cell-based
Method: Quiescent human fibroblasts were incubated with TNF (500 units/ml) (a) or OA (500 nM) (b) for 0, 30, 60 min after which total cellular RNA was extracted. Blots of RNA from these cells were hybridized to radiolabeled (10⁶ cpm/ml) Egr-1 cDNA probe. c, the blot in b was stripped and reprobed with c-jun cDNA. Note: Egr-1 mRNA probe was not completely stripped from the blot. The autoradiograph of the blot is presented. d, regularly maintained cells were incubated wither with no additions (control, 0 time) or with OA for 1, 3, 5, 7 h and Northern analysis was carried out with an IL-6 cDNA probe (ATCC, Rockville, MD, US).
as §1
Cells were incubated with either 0.5 µM of okadaic acid or 10 µg/ml of cycloheximide as well as with 0.5 µM of okadaic acid and 10 µg/ml of cycloheximide for 1.5, 3 or 6 h. Cells were harvested, RNA isolated and subjected to Northern blot analysis. The blot was probed with Egr-1 or actin cDNA.
as §2, with “The concentration of each agonist used was as follows: lane a: 0.5 µM of OA, lane b: 100 ng/ml of TPA, lane c: 1 mM of dBt-cAMP, lane d: H7 plus OA (0.5 µM), lane e: H7 plus TPA (100 ng/ml), lane f: H7 plus dBt-cAMP (1 mM), lane g: HA1004 plus OA (0.5 µM), lane h: HA1004 plus TPA (100 ng.ml), lane i: HA1004 plus dBt-cAMP (1mM). The blot was probed with Egr-1 or GADPH cDNA.” left out

human fibroblasts = test: Early protein phosphorylation changes in 32P-labeled cells, two-dimensional gel electrophoresis with computerized densitometry; type: cell-based
Method: The cells were then subjected to analysis by high resolution two-dimensional gel electrophoresis combined with computerized imaging as previously described (Guy et al, J. Biol. Chem. 266, 14343-14352, 1991).
Radiolabeling of Cells and Cell Lysis - For labeling with [³²P]orthophosphate cells were plated onto 90 mm plastic tissue culture dishes and incubated for 3 days for the cells to become confluent. Immediately before labeling, the media was removed and the cells were washed twice with 5 ml of phosphate- and serum-free media (150 mM NaCl, 5 mM MgCl₂, 5 mM KCl, 1.6 mM CaCl₂, 0.5% glucose, 10 mM Tris, 0.1% bovine serum albumin, pH 7.4) before the addition of 1 mCi/ml of [³²P]orthophosphate in 3 ml of the same media to each plate. The plates were incubated at 37°C in a humidified CO₂ incubator for 2 h before the addition of the okadaic acid or other agonists at the concentrations and for the times indicated in the figures and table. The agonists were reconstituted in aqueous buffered solution or in dimethyl sulfoxide. […] At the completion of labeling the media was removed, and the cells were rapidly washed twice with 5 ml of ice-cold phosphate-buffered saline before being solubilised in 200 µl of cytosol extraction buffer (10mM Tris-HCl, 50 mM EDTA, 50 mM NaCl, 30 mM sodium pyrophosphate, 50 mM NaF, 100µM Na₃VO₄, 0.65% Nonidet P-40, 2 mM leupeptin, 2mM phenylmethylsulfonyl fluoride, pH 7.4). The lysate was collected and centrifuged for 5 min at 14,000 rpm. The pellet containing the nuclear fraction (including the cytoskeletal-membrane fractions) was separated from the cytosolic fraction. Both fractions were lyophilized.
Two-dimensional Gel Electrophoresis - The lyophilized fractions (each of approximately 12 µg) were subjected to isoelectric focusing for 18,000 V/h with pH 3-10 ampholytes using the Millipore Investigator two-dimensional electrophoresis system (Millipore). Following this, the first-dimension gel was extruded and equilibrated in SDS buffer for 2 min before being loaded onto the second dimension 12.5% SDS-polyacrylamide gel. The gel was fixed, dried and ³²P-labeled polypeptides were located by autoradiography by using intensifying screens at -80°C. For measurement of the pH profile, carbamylated protein standards (Pharmacia LKB Biotechnology Inc.) were co-run on duplicate gels and related to proteins of known pI on previously calibrated samples. Molecular weight marker proteins from Sigma were detected by Coomassie Blue staining and marked on the autoradiogram. ³²P-Labeled 27 hsp complex prepared from human fibroblasts heat shocked at 43°C for 30 min was also used as a marker.
Quantitative Determination of Protein Phosphorylation - The amount of protein phosphorylation on autoradiographs derived from cytosolic membrane or antibody-precipitated preparations containing equal amounts of protein were analyzed by computerized densitometry using a Visage 2000 Image analysis system (BioImage Products, Ann Arbor, MI, US).
The ³²P-labeled protein spots are resolved and detected by autoradiography of the high definition two-dimensional gel electrophoresis of cytosolic extracts prepared from ³²P-labeled human fibroblasts. The radioactive spots (each representing one or more phosphoproteins) are analyzed by computerized densitometry. Each spot is arbitrarily assigned a number. […]

c-fos and c-jun = test: Northern blot analysis of c-fos and c-jun in Balb/c 3T3 cells; type: cell-based, mouse; settings: 15 nM time course
Method: 10 µg of RNA was applied to each lane and subjected to Northern blot analysis using an Egr-1 specific cDNA probe [1.6 kb Bgl II fragment (Sukhatme et al, Cell 53, 37-48, 1988)]. The same blots were rehybridized with actin or GADPH cDNA for normalizing the amount of RNA loaded. The blots were dried and autoradiographed. • (A). Time course of okadaic acid-induced Egr-1 and c-jun messages in primary human fibroblasts. Quiescent human fibroblasts were induced with 1 µM of okadaic acid for the time periods indicated. […] Time course of okadaic acid-induced Egr-1 message in Balb/c 3T3 cells. Quiescent Balb/c 3T3 cells were induced with okadaic acid (0.5µM) for the times indicated. • (C). Concentration dependent induction of Egr-1 message by okadaic acid in Balb/c 3T3 cells. Quiescent Balb/c 3T3 cells were induced with the indicated concentrations of okadaic acid for 1 h. As controls, different concentrations of DMSO were included. These corresponded to the amounts present in 0.25 µM okadaic acid (0.025% dimethyl sulphoxide (DMSO)) 0.5 µM okadaic acid (0.05% DMSO) and 1 µM okadaic acid (0.1%). • (D). […]
Cell Cultures and Reagents. […] The blots were autoradiographed and quantitated with the aid of the Visage 2000 Image System (BioImage Products, Ann Arbor, MI, US). […]

Egr-1 protein = type: cell-based; settings: 2 h treatment, data not shown
Method: Quiescent human fibroblasts were stimulated with MEM containing 0.5 µM okadaic acid in the presence or absence of cycloheximide (10 µg/ml) for the times indicated in Fig. 11. […] Treatment of cells with cycloheximide enhanced the induction of Egr-1 mRNA by okadaic acid at 1.5 and 3 h (Fig. 11). Similarly puromycin, like cycloheximide, also "superinduces" the induction of the Egr-1 mRNA by okadaic acid (data not shown). […] However, in view that protein phosphatase 1 (PP1) and protein phosphatase 2A (PP2A) regulate enzymes associated with cellular protein synthesis (Cohen, Annu. Rev. Biochem. 58, 453-508, 1989) the effect of okadaic acid on protein synthesis in mouse and human fibroblasts was also measured. […] By then the Egr-1 mRNA message was already induced. A corollary to this is a comparison of the amount of ³⁵S-methionine labelled Egr-1 protein immunoprecipitated by R5232 antibodies from protein phosphatase inhibitor-treated and control cells. […] Thus, the induction of the Egr-1 gene by phosphatase inhibitors is unlikely to be mediated by their late inhibitory effects on cellular protein synthesis.

`CC1CNCCN1S(=O)(=O)c1cccc2cnccc12.Cl.Cl` (stereo not shown) [H7, 1-(5-isoquinolinylsulfonyl)-2-methylpiperazine dihydrochloride] was tested, and the “block of induction of Egr-1 message by okadaic acid or TPA (in words)” value (Egr-1 mRNA [1]; 25 µM, 15 min pre-treatment) was “effectively blocked” and the “block of induction of Egr-1 message by okadaic acid or TPA (in words)” value (Egr-1 mRNA [2]; 25 µM, 15 min pre-treatment) was “effectively blocked”.
For `C[C@@H]1C[C@@H]([C@H](O)CC2CC(=O)NC(=O)C2)C(=O)[C@@H](C)C1` [cycloheximide], the “effect on the induction of Egr-1 mRNA by okadaic acid (in words)” value (Egr-1 mRNA [2]) was “enhanced” and the “induction of Egr-1 mRNA by the substance alone (in words)” value (Egr-1 mRNA [2]) was “induced Egr-1 mRNA”.
With O-tetradecanoylphorbol 13-acetate [TPA] the “pattern of early protein phosphorylation changes (in words)” value (human fibroblasts) was “quite different from that produced by okadaic acid or TNF”.
For `COC[C@@H]([C@H](O)[C@H](O)C(=O)NCC[C@H](C)c1nc(/C=C/C[C@@H]2O[C@]3(C[C@@H](O)[C@@H]2C)O[C@H]([C@H](C[C@H](O)[C@H](C)[C@H](O)[C@H](C)/C=C(C)/C(C)=C/C=C/C(C)=C\C#N)OC)[C@H](OP(=O)(O)O)C3(C)C)co1)N(C)C` [calyculin A], the “induction of immediate-early genes c-fos and c-jun (in words)” value (c-fos and c-jun) was “also induced”, the “amount of 35S-methionine labeled Egr-1 protein relative to control cells” value (Egr-1 protein) was 4 to 5 fold and the “concentration up to which induction of Egr-1 mRNA increased dose-dependently” value (Egr-1 mRNA [1]; 1 h) was “up to 25 nM”. For the same compound, the “concentration inducing an equivalent fold increase in Egr-1 mRNA” value (Egr-1 mRNA [1]; 1 h, calyculin A compared with okadaic acid) was 10 nM.
`COc1ccc(C[C@H](N)C(=O)N[C@H]2[C@@H](O)[C@H](n3cnc4c(N(C)C)ncnc43)O[C@@H]2CO)cc1` [puromycin] was tested, and the “effect on the induction of Egr-1 mRNA by okadaic acid (in words)” value (Egr-1 mRNA [2]; 0.5 µM okadaic acid, protein synthesis inhibitor) was “superinduces”.
